Experimental data taken from patent publication US20230167118A1, “DEGRADATION OF BRUTON'S TYROSINE KINASE (BTK) BY CONJUGATION OF BTK INIDBITORS WITH E3 LIGASE LIGAND AND METHODS OF USE” (BEIGENE, LTD., priority 2020, published 2023).

Legend:
[1] = molecular target: T1, BTK (Homo sapiens, UniProt Q06187); assay: Cell Degradation: BTK degradation in TMD-8 cells, HTRF assay; assay type: cell-based; settings: 6 h treatment, IC50 (DC50) of BTK degradation
T1 construct: High control=Cell group with added DMSO and without compound, indicating microplate readings without BTK degradation; endogenous in cells; host or cells: TMD-8 cells
Procedure, shortened: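 BTK levels read by HTRF (665 vs 620 nm) in lysates of TMD-8 cells after 6 h compound exposure (eight doses, 6-fold steps, 0.2% DMSO). Percent degradation relative to controls; four-parameter curve fitting gave DC50, with Dmax the top degradation.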

[2] = test system: HEK-293 cells; assay: HEK-293 Cytotoxicity Assay (CellTiter-Glo); assay type: cell-based; settings: Homo sapiens, HEK293, 72 h incubation, CellTiter-Glo luminescence
Procedure, shortened: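 Four-parameter fit of % inhibition gives IC50, from CellTiter-Glo luminescent viability read-out. Cells exposed for 72 h to an 8-point, 4-fold series at 0.2% DMSO.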

T1 sequence (Q06187 whole entry): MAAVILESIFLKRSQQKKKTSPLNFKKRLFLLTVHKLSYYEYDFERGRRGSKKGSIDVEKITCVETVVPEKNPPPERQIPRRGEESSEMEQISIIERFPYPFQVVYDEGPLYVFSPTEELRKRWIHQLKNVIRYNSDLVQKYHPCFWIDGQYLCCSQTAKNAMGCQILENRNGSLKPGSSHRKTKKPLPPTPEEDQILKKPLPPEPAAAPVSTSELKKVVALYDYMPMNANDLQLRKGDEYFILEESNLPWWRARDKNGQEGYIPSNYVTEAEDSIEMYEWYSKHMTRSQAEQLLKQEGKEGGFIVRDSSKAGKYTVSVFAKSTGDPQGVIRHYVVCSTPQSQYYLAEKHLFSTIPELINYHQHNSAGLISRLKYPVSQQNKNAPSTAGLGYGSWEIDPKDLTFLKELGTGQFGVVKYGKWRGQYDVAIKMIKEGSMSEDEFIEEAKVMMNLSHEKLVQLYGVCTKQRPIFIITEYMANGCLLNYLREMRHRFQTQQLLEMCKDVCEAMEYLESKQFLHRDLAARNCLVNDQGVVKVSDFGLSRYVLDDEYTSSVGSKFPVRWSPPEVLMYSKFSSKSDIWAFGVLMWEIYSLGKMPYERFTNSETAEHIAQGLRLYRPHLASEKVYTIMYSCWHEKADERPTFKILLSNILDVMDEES

CC(C)(C)c1nc(C(=O)N[C@@H]2CCc3cc(-c4ncnc5[nH]c(-c6ccc(N7CCN(CC8CCN(c9ccc(N%10CCC(=O)NC%10=O)cc9)CC8)CC7)cc6)cc45)ccc32)no1 [Example 156, (R)-5-(tert-butyl)-N-(5-(6-(4-(4-((1-(4-(2,4-dioxotetrahydropyrimidin-1(2H)-yl)phenyl)piperidin-4-yl)methyl)piperazin-1-yl)phenyl)-7H-pyrrolo[2,3-d]pyrimidin-4-yl)-2,3-dihydro-1H-inden-1-yl)-1,2,4-oxadiazole-3-carboxamide]
DC50 [1]: 2.43 nM
IC50 [2]: > 10000 nM

Cc1cc(-c2ncnc3[nH]c(-c4ccc(N5CCN(CC6CCN(c7ccc(N8CCC(=O)NC8=O)cc7)CC6)C[C@H]5C)nc4)cc23)ccc1[C@@H](C)NC(=O)c1nc(C(C)(C)C)no1 [Example 105, 3-(tert-butyl)-N-((R)-1-(4-(6-(6-((R)-4-((1-(4-(2,4-dioxotetrahydropyrimidin-1(2H)-yl)phenyl)piperidin-4-yl)methyl)-2-methylpiperazin-1-yl)pyridin-3-yl)-7H-pyrrolo[2,3-d]pyrimidin-4-yl)-2-methylphenyl)ethyl)-1,2,4-oxadiazole-5-carboxamide]
DC50 [1]: 3 nM
IC50 [2]: > 10000 nM

Cc1nn(C2CCN(CC3CCN(c4ccc(N5CCC(=O)NC5=O)cc4)CC3)CC2)c(C)c1-c1cc2c(-c3ccc([C@@H](C)NC(=O)c4nc(C(C)(C)C)no4)c(CO)c3)ncnc2[nH]1 [Example 138, (R)-3-(tert-butyl)-N-(1-(4-(6-(1-(1-((1-(4-(2,4-dioxotetrahydropyrimidin-1(2H)-yl)phenyl)piperidin-4-yl)methyl)piperidin-4-yl)-3,5-dimethyl-1H-pyrazol-4-yl)-7H-pyrrolo[2,3-d]pyrimidin-4-yl)-2-(hydroxymethyl)phenyl)ethyl)-1,2,4-oxadiazole-5-carboxamide]
DC50 [1]: 0.29 nM
IC50 [2]: 1860 nM

Cc1cc(-c2ncnc3[nH]c(-c4ccc(N5CCN(CC6CCN(c7ccc(N8CCC(=O)NC8=O)cc7)CC6)CC5)cc4)cc23)ccc1CNC(=O)c1noc(C(C)(C)C(F)(F)F)n1 [Example 50, N-(4-(6-(4-(4-((1-(4-(2,4-dioxotetrahydropyrimidin-1(2H)-yl)phenyl)piperidin-4-yl)methyl)piperazin-1-yl)phenyl)-7H-pyrrolo[2,3-d]pyrimidin-4-yl)-2-methylbenzyl)-5-(1,1,1-trifluoro-2-methylpropan-2-yl)-1,2,4-oxadiazole-3-carboxamide]
DC50 [1]: 1.1 nM
IC50 [2]: > 10000 nM
